What all share (type): cell-based
Experiment [1] has as its system Helicobacter pylori (2 ATCC strains and 25 clinical isolates). The experiment can be described thus: Antibacterial activity on Helicobacter pylori, agar dilution MIC, 27 strains. Particulars: for Growth inhibition rate: share of 27 strains inhibited. The protocol:
As test strains, 2 commercial ATCC strains ([…] and TACC43526 strain) of Helicobacter pylori, and 25 clinical isolates were used. Each of the strains was inoculated into a brain heart infusion agar medium containing 7% horse blood, and cultured under microaerophilic conditions including 5% of O2, 10% of CO2 and 85% of N2 at 37° C. After culture for 3 to 4 days, colonies of each strain formed on the medium were collected, and suspended in a brain heart infusion medium containing 10% of fetal calf serum so that turbidity was McFarland No. 1 (the number of bacteria was about 3×10^8/ml) to form a test bacterial suspension. On the other hand, a test compound (compound 4) was dissolved in dimethylsulfoxide, and a diluent in a double dilution series was prepared with dimethylsulfoxide so that the final concentration of the solvent was 0.5%, to form a test drug solution. 100 μl of the test drug solution was mixed with 20 ml of a brain heart infusion agar medium containing 7% horse blood and about 45° C., and the resultant mixture was solidified by allowing to cool to form a test medium. Next, about 5 μl of test bacterial suspension was inoculated into the medium by using a micro planter, and then cultured under microaerophilic conditions including 5% of O2, 10% of CO2 and 85% of N2 at 37° C. for 4 days. […] The minimum concentration at which growth of 50% of the total 27 stains used in the test was inhibited was MIC50, and the minimum concentration at which growth of 90% the strains used was inhibited was MIC90.
In general terms: In agar dilution, organisms are placed on agar that contains the substance at set levels.

Experiment [2] concerns human platelet aggregation. Briefly: Effect on human platelet aggregation (ADP-induced, in the presence of SQ-29548). The settings on record: human PRP, SQ-29548 added, aggregation induced with ADP, compound 10 μM; control 38 ± 4.9. The protocol:
The blood collected from healthy persons was centrifuged to separate platelet-rich plasma (PRP) and platelet-poor plasma (PPP). […] Experiment was carried out for 3 examples per group.

Experiment [3] relates to Helicobacter pylori (three strains of ATCC43504, ATCC43526, and TK1402). Briefly: Antibacterial activity on Helicobacter pylori, disk method, lethal concentration (LC). The settings on record: culture 4 days. The protocol:
A blank disk (produced by Beckton Deckinson Co.,) was placed in a brain heart infusion agar medium containing 7% horse blood and coated with Helicobacter pylori (three strains of ATCC43504, ATCC43526, and TK1402). The disk was soaked with 10 μl of a solution of a test compound in dimethylsulfoxide, and then cultured under microaerophilic conditions including 5% of O2, 10% of CO2 and 85% of N2 at 37° C. for 4 days. After the completion of culture, the diameter of a growth inhibition circle formed around the disk was measured, and the lethal concentration (LC) of each test compound was computed according to the computation expression of Hultmark et al. (The EMBO Journal, 2, 571-576, 1983).

We go through three molecules from patent US6555559B1, “5,6,7-trinor-4,8-inter-m-phenylene PGI2, derivative and drugs containing the same” (Toray Industries, Inc., priority 1998, dated 2003).

≈ marks a conversion by molar mass, not a printed value.

Take `CC(C)(Oc1ccccc1)C(O)C(F)=CC1C(O)CC2Oc3c(CCC(=O)O)cccc3C21` (stereo not drawn) [Example 4, 14-Fluoro-16-methyl-16-phenoxy-15-epi-2,5,6,7,18,19,20-heptanor-4,8-inter-m-phenylene PGI2]: the “Number of strains inhibited/total strains” value is given as 11/27 in experiment [1] (concentration 12.5 μM), 20/27 in experiment [1] (concentration 25 μM) and 26/27 in experiment [1] (concentration 50 μM). Moreover, the Growth inhibition rate came to 40.7% in experiment [1] (concentration 12.5 μM), 74.1% in experiment [1] (concentration 25 μM) and 96.3% in experiment [1] (concentration 50 μM). For the same molecule, the MIC50 (commonly an inhibitory concentration at the 50% level, which refers to growth in some studies and to a panel of isolates in others) in experiment [1] (minimum concentration inhibiting growth of 50% of the total 27 strains) amounted to 12.5 µM (≈ 5.71 µg/mL). In addition, the MIC90 (in general, the lowest concentration that inhibits either 90% of growth or 90% of the strains tested, depending on the study) in experiment [1] (minimum concentration inhibiting growth of 90% of the total 27 strains) amounted to 50 µM (≈ 22.8 µg/mL).
Turning to `CC(C)(Oc1ccccc1)C(O)C(F)=CC1C(O)CC2Oc3c(CCC(=O)O)cccc3C21` (stereo not drawn) [Example 3, 14-Fluoro-16-methyl-16-phenoxy-2,5,6,7,18,19,20-heptanor-4,8-inter-m-phenylene PGI2], the Platelet aggregation in experiment [2] came to 54 ± 1.7%.
`COC(=O)CCc1cccc2c1OC1CC(OC(C)=O)C(C=C(F)C(=O)C(C)(C)Oc3ccccc3)C21` (stereo not drawn) [Example 1, 14-Fluoro-16-methyl-15-oxo-16-phenoxy-2,5,6,7,18,19,20-heptanor-4,8-inter-m-phenylene PGI2 Methyl Ester, 11-Acetate]: the “Antibacterial activity (lethal concentration LC)” value in experiment [3] (Helicobacter pylori strain ATCC43504) came out at 141 ± 27 µM; in experiment [3] (Helicobacter pylori strain ATCC43526), 169 ± 6 µM; in experiment [3] (Helicobacter pylori strain TK1402), 151 ± 4 µM.
